Data from article PMC8657848, “Developmental Toxicity and Biotransformation of Two Anti-Epileptics in Zebrafish Embryos and Early Larvae” (International Journal of Molecular Sciences, 2021).
Where two headings read alike, the source gives them in different places.

Experiments:
[1] = Microsomal incubation with CBZ and PHE, adult zebrafish liver microsomes; type: in vitro ADME, Danio rerio; details: data not shown
[2] = Microsomal incubation with CBZ and PHE, rabbit liver microsomes; type: in vitro ADME; details: rabbit adult liver microsomes; data not shown
Procedure: (§1) Moreover, positive and negative controls were included: pooled human liver microsomes (Gibco™, HMMCPL–PL050B, Thermo Fisher Scientific) and Insect Cell Control Supersomes™ (lot number: PL050 C-B, 456201, Corning Incorporated, Corning, NY, USA), respectively. Based on Oziolor et al., microsomal reactions were initiated after adding the substrate solution at a concentration of 100 µM (see Supplementary Table S1) in a mixture of 100 mM K3PO4 buffer (Corning® Gentest™, NY, USA) of pH 7.4, 5% and 1% of NADPH regenerating system reagents A and B, respectively (Corning, Woburn, MA, USA) and 200 µg/mL of microsomal protein, for a total volume of 500 µL. The reactions were performed at 28.5 ± 0.3 °C until the time point of interest. […]
(§2) For the quantification of the metabolites E-CBZ and HPPH, the samples processed were the microsomal incubation reactions (see Section 4.3.2), the zebrafish culture and stock medium (4.2.1) and the zebrafish embryos/larvae extracts (see Section 4.2.3). […] To quantify the concentrations of E-CBZ and HPPH in these samples, standard curves (in duplicate) of 10 concentrations for E-CBZ (0.5–400 ng/mL; see Supplementary Table S1) and HPPH (2–1600 ng/mL; see Supplementary Table S1) were prepared, as were quality controls. […]

zebrafish embryos = details: cited from earlier work; for Embryos affected, combining teratogenic and lethal effects: after three days of exposure
[3] = Microsomal incubation with CBZ and PHE, rat liver microsomes; type: in vitro ADME; details: rat adult liver microsomes; data not shown
Procedure: as §1, §2

[4] = system: zebrafish embryos and larvae; assay: Morphological evaluation of zebrafish embryos/larvae exposed from 5¼ to 120 hpf; details: in vivo
Procedure: Each experiment was performed in two biological replicates (n = 2, 20 embryos/replicate) and consisted of a medium control group (EMS), solvent control group(s) (EMS + 0.5% DMSO and/or EMS + 1% DMSO) and four dose groups. […] Embryos were reared until they reached the desired developmental stage, under the same environmental conditions as the adults (28.5 °C ± 0.3 °C with a 14/10 h light/dark cycle) in the incubator (TIN-IN35, Phoenix instrument, Garbsen, Germany).
For the metabolites, E-CBZ (≥98% purity, CAS number: 36507-30-9, Supelco, Merck, Darmstadt, Germany) and HPPH (98% purity, CAS number: 2784-27-2, Sigma-Aldrich®, Merck, Darmstadt, Germany), we only selected one high concentration, 250 µM (see Supplementary Table S1). […] A higher percentage of DMSO was used for E-CBZ for the optimum dissolution of E-CBZ in EMS. Immediately after the selection (see Section 4.1), twenty embryos were randomly distributed in each control and test group. Embryos were exposed at the latest at 5 hpf in a final volume of 300 µL medium at a density of a fish per well.
For each biological replicate (n = 2), zebrafish embryos were morphologically investigated at 5¼, 10, 24, 48, 72, 96 and 120 hpf (Figure 9) using an Olympus CKX41 microscope with an Olympus U-TV0.5XC-3 lighting and an Olympys 4x/0.16 Uplan APO microscope objective (Shinjuku, Tokyo, Japon) to follow the developmental stages described by Kimmel et al.. The 5¼- and 10-hpf time points served as control steps to identify unfertilized or coagulated eggs that were included unwittingly to the experiment and referenced as coagulated in the 24-hpf morphological sheet (see Supplementary Figure S3). A series of morphological parameters were explored, adapted from Nagel et al., depending on the different time points of interest and described previously by our group (see Supplementary Figure S3). All parameters were scored 0 if normal and 1 if malformed. This binary scale was used to facilitate the scoring and no gradation of the severity of the endpoints was evaluated in this study.

[5] = Microsomal incubation with CBZ and PHE, human liver microsomes; type: in vitro ADME; details: human adult liver microsomes; data not shown
Procedure: as §1, §2

[6] = Quantification of compound in stock and culture medium relative to nominal concentration (LC-MS); type: physicochemical; details: for Percentage of quantified compound concentration relatively to the nominal concentration: CBZ–E-CBZ
Procedure: The control and test mediums were also kept in the same incubator until the last time point of the experiment. The embryo media were renewed every 48 h, to avoid medium acidification and oxygen deprivation. At each medium change and at the last time point of the experiment (Figure 9), the media exposed to the embryos were pooled and kept at −80 °C for further use (n = 3). Moreover, samples from the stock solutions kept at 28.5 °C ± 0.3 °C were also taken at 0 and 120 hpf (n = 3), whereas samples were only taken at 96 hpf for the metabolites medium (E-CBZ and HPPH).

[7] = zebrafish (Danio rerio), 120 hpf, 85 µM
[8] = zebrafish (Danio rerio), 120 hpf, 250 µM
[9] = zebrafish (Danio rerio), 120 hpf, 31.25 µM

Structure (SMILES): NC(=O)N1c2ccccc2C=Cc2ccccc21 [CBZ, carbamazepine]
- Decrease of parent compound after 240 min (pilot investigation) [1]: no changes
- Decrease of parent compound after 240 min (pilot investigation) [2]: slight decrease
- Embryos affected, combining teratogenic and lethal effects (zebrafish embryos; 31.25 µM): less than 20%
- Embryos affected, combining teratogenic and lethal effects (zebrafish embryos; 250 µM): around 50%
- Percentage of larvae affected at 72 hpf (zebrafish embryos; 250 µM): 48.3 ± 11.5%
- Decrease of parent compound after 240 min (pilot investigation) [3]: no changes
- Teratogenicity in zebrafish (conclusion from morphological and analytical assessment) [4]: teratogens
- Coagulation [4, 7]: 2/20
- Deviation Tail Curve [4, 7]: 1/18
- Malformation Head Deviation Eye [4, 7]: 1/18
- Malformation Head Deviation Mouth [4, 7]: 2/18
- Malformation Head Deviation Shape Head [4, 7]: 3/18
- Deviation Tail Curve [4, 8]: 2/20
- Malformation Head Deviation Mouth [4, 8]: 3/20
- Oedema Yolk [4, 8]: 3/20
- Decrease of parent compound after 240 min (pilot investigation) [5]: no changes
- Percentage of quantified compound concentration relatively to the nominal concentration ([6]; Culture medium exposed to embryos/larvae, nominal 31.25 µM, 48 hpf): 95.4 ± 16.2%
- Percentage of quantified compound concentration relatively to the nominal concentration ([6]; Culture medium, nominal 31.25 µM, 96 hpf): 101.2 ± 21.7%
- Percentage of quantified compound concentration relatively to the nominal concentration ([6]; Culture medium, nominal 31.25 µM, 120 hpf): 109.6 ± 5.4%
- Percentage of quantified compound concentration relatively to the nominal concentration ([6]; Culture medium, nominal 85 µM, 48 hpf): 110.0 ± 4.8%
- Percentage of quantified compound concentration relatively to the nominal concentration ([6]; Culture medium, nominal 85 µM, 96 hpf): 116.8 ± 4.7%
- Percentage of quantified compound concentration relatively to the nominal concentration ([6]; Culture medium, nominal 85 µM, 120 hpf): 113.9 ± 4.5%
- Percentage of quantified compound concentration relatively to the nominal concentration ([6]; Culture medium, nominal 250 µM, 48 hpf): 113.4 ± 14.1%
- Percentage of quantified compound concentration relatively to the nominal concentration ([6]; Culture medium, nominal 250 µM, 96 hpf): 114.2 ± 2.6%
- Percentage of quantified compound concentration relatively to the nominal concentration ([6]; Culture medium, nominal 250 µM, 120 hpf): 111.5 ± 2.6%
- Percentage of quantified compound concentration relatively to the nominal concentration ([6]; Stock, nominal 31.25 µM, 0 hpf, average of three replicates): 95.6 ± 2.0%
- Percentage of quantified compound concentration relatively to the nominal concentration ([6]; Stock, nominal 31.25 µM, 120 hpf): 101.6 ± 7.7%
- Percentage of quantified compound concentration relatively to the nominal concentration ([6]; Stock, nominal 85 µM, 0 hpf): 81.7 ± 18.7%
- Percentage of quantified compound concentration relatively to the nominal concentration ([6]; Stock, nominal 85 µM, 120 hpf): 90.4 ± 6.6%
- Percentage of quantified compound concentration relatively to the nominal concentration ([6]; Stock, nominal 250 µM, 0 hpf): 92.1 ± 5.3%
- Percentage of quantified compound concentration relatively to the nominal concentration ([6]; Stock, nominal 250 µM, 120 hpf): 98.4 ± 4.6%

Structure (SMILES): O=C1NC(=O)C(c2ccccc2)(c2ccccc2)N1 [PHE, phenytoin]
- Decrease of parent compound after 240 min (pilot investigation) [1]: No decrease
- Decrease of parent compound after 240 min (pilot investigation) [2]: very slight decrease
- Embryos affected, combining teratogenic and lethal effects (zebrafish embryos; 31.25 µM): less than 20%
- Embryos affected, combining teratogenic and lethal effects (zebrafish embryos; 250 µM): around 50%
- Percentage of larvae affected at 72 hpf (zebrafish embryos; 250 µM): 45.0 ± 21.8%
- Decrease of parent compound after 240 min (pilot investigation) [3]: very slight decrease
- Teratogenicity in zebrafish (conclusion from morphological and analytical assessment) [4]: teratogens
- Deviation Tail Curve [4, 9]: 1/20
- Malformation Head Deviation Eye [4, 9]: 2/20
- Deviation Pigmentation [4, 7]: 2/20
- Deviation Tail Elbow [4, 7]: 1/20
- Deviation Tail Tissue Deviation [4, 7]: 2/20
- Deviation Tail Elbow [4, 8]: 2/20
- Deviation Tail Tissue Deviation [4, 8]: 1/20
- No Hatching [4, 8]: 1/20
- Oedema Head [4, 8]: 1/20
- Oedema Pericardium [4, 8]: 1/20
- Oedema Yolk [4, 8]: 1/20
- Decrease of parent compound after 240 min (pilot investigation) [5]: No decrease
- Quantified concentration in culture medium lower than the nominal concentration ([6]; 31.25 µM, stable over time): 20%
- Quantified concentration lower than the nominal concentration ([6]; 85 µM, culture medium at 96 and 120 hpf and stock medium at 120 hpf): around 35%
- Quantified concentration lower than the expected concentration ([6]; 85 µM, stock medium at 0 hpf and culture medium at 48 hpf): around 20%
- Quantified concentration as percentage of the nominal concentration ([6]; 250 µM, stock and culture medium, all time points): ≤ 45%
- Dissolution / precipitation in EMS ([6]; visually observed in the stock medium for 85 and 250 µM): did not dissolve properly in the EMS and/or precipitated in EMS
